{"source": "patent US20250144036A1", "about": "“COMPOUNDS AND COMPOSITIONS FOR DELIVERY OF THERAPEUTIC AGENTS” (ModernaTX, Inc., priority 2021, published 2025)", "key": {"endothelial cells [1]": {"tested_on": "endothelial cells", "assay": "Expression of tdTomato (Cre mRNA) in endothelial cells following intravenous administration of loaded LNPs (flow cytometry of lung cells)", "format": "in vivo, mice (Ail4)", "conditions": "ionizable lipid/PEG lipid VI-4/PEG-DMG, 30 mol % cationic lipid or none, i.v., 8 days before harvest", "method": "(§1) Reagents: Digestion Media: 3 mg/mL collagenase 1, 0.1 mg/mL DNase I, Dulbecco's Modified Eagle Medium (DMEM); Wash solution: Dulbecco's phosphate-buffered saline (DPBS)+0.5% Bovine Serum Albumin (BSA); FACS Buffer: Flow Cytometry Staining Buffer (eBioscience™, ThermoFisher Scientific).\n(§2) • CD31: General Endothelial Marker; • CD45: Leukocyte Common Marker; • mOX40L: Transmembrane Reporter; • tdTomato: Fluorescence Protein Reporter from Cre-mediated recombination in Ail4 mice.\n(§3) Six-week-old female mice (Ail4) were aged in-house to approximately 7-8 weeks of age. With an n=5 per group, Cre mRNA (i.e., mRNA leading to expression of tdTomato) formulated LNPs were intravenously dosed via the lateral tail vein 8 days before harvest. […] Collected data was analyzed using flow cytometry analysis software (FlowJo™).\n(§4) To assess the delivery of a therapeutic agent comprised in loaded LNPs of the disclosure to endothelial cells, the expression of Cre and mOX40L mRNA encapsulated in loaded LNPs of the disclosure was measured in endothelial cells following administration of the loaded LNPs to Ail4 mice as described in Example 3. […] The expression was evaluated in LNPs comprising 30 mol % of a cationic lipid of Formula (I) and in loaded LNPs not comprising the cationic of Formula (I) (i.e., LNPs not comprising a cationic lipid, or LNPs comprising dioleoyl-3-trimethylammonium propane (DOTAP))."}, "endothelial cells [2]": {"tested_on": "endothelial cells", "assay": "Expression of mOX40L in endothelial cells following intravenous administration of loaded LNPs (flow cytometry of lung cells)", "format": "in vivo, mice (Ail4)", "conditions": "ionizable lipid/PEG lipid VI-4/PEG-DMG, 30 mol % cationic lipid or none, i.v., 24 h after dose", "method": "as §1, §2, §3, §4"}}, "data": [{"compound": "CCCCCCCC/C=C\\CCCCCCCC(=O)OCC(C[N+](C)(C)C)OC(=O)CCCCCCC/C=C\\CCCCCCCC", "note": "(centres unmarked) [DOTAP, dioleoyl-3-trimethylammonium propane]", "values": [{"measurement": "% Endothelial cells Average", "setting": "endothelial cells [1]", "result": 0, "unit": "%"}, {"measurement": "% Endothelial cells Average", "setting": "endothelial cells [2]", "result": 0, "unit": "%"}]}]}
